From article PMC10890569, “The Sequence Characteristics and Binding Properties of the Odorant-Binding Protein SvelOBP1 from Sympiezomias velatus (Coleoptera: Curculionidae) to Jujube Volatiles” (Life, 2024)
Where two headings read alike, the source gives them in different places.

Key:
SvelOBP1 [1] = test: Competitive fluorescence binding assay (displacement of 1-NPN); set-up: species or system Sympiezomias velatus; conditions: for IC50: 2 μM recombinant SvelOBP1/1-NPN, ligand 0-16 μM, 20 mM Tris-HCl pH7.4, three replicates, read-out: IC50 (ligand concentration replacing 50% of initial fluorescence of SvelOBP1/1-NPN mixture)
Protocol: (§1) The fluorescent probe 1-N-phenyl-naphthylamine (1-NPN) was used to evaluate the binding affinity of SvelOBP1 protein to different ligands. Forty-three host plant volatiles from leaves of jujube trees were selected as putative ligands (Table 2). Fluorescence-based ligand binding assays were performed on an F-2700 fluorescence spectrophotometer (Hitachi, Tokyo, Japan). The excitation wavelength was 337 nm, and the emission spectra were in the range from 370 to 550 nm. First, all tested ligands and 1-NPN were dissolved in chromatographic methanol and diluted to 1 mM as the stock solution. Second, the recombinant protein was diluted to 2 μM with 20 mM Tris-HCl (pH7.4), and 2 mL of the protein solution was placed in a 1 cm light path quartz cuvette.
(§2) The dissociation constants K1-NPN of 1-NPN to SvelOBP1 were calculated by GraphPad Prism 8.0 software with non-linear regression for the one site-specific binding method. The inhibitory constant (Ki) of each ligand binding to SvelOBP1 was calculated with Equation (1). IC50 is the ligand concentration replacing 50% of the initial fluorescence intensity of the SvelOBP1/1-NPN mixture. [1-NPN] represents the free concentration of 1-NPN. […] (1) Ki=IC50/(1+[1−NPN]/K1−NPN)

SvelOBP15 = molecular target: SvelOBP15; set-up: method as in PMID 35711318; conditions: cited from earlier work
SvelOBP1 [2] = test: Binding of fluorescent probe 1-NPN to SvelOBP1 (titration, Scatchard plot); set-up: species or system Sympiezomias velatus; conditions: 2 μM SvelOBP1 titrated with 1-NPN 0-16 μM, pH7.4; read-out: dissociation constant (Kd) of 1-NPN
Protocol: as §1, §2

[3] = Ki=IC50/(1+[1-NPN]/K1-NPN), 2 μM SvelOBP1/1-NPN, pH7.4, mean ± SEM, read-out: Ki (inhibitory constant)
[4] = class in words by Ki, read-out: binding affinity class

Row | SMILES | IC50 (SvelOBP1 [1]; mean ± SEM) | Ki (SvelOBP1 [1]; [3]) | other results
1 | CCC/C=C/COC(=O)CCCCC [[(E)-hex-2-enyl] hexanoate] | 14.51 ± 0.06 µM | 12.06 ± 0.05 µM | 
2 | CCCC(=O)OCC [Ethyl butyrate] | 14.2 ± 0.16 µM | 11.8 ± 0.13 µM | 
3 | CC/C=C\CCOC(C)=O [[(Z)-hex-3-enyl] acetate] | 14.45 ± 0.11 µM | 12.01 ± 0.09 µM | 
4 | CC(C)=CCC/C(C)=C/CO [(2E)-3,7-dimethylocta-2,6-dien-1-ol] | > 16 µM |  | 
5 | C=CC(C)(O)CC/C=C(\C)CCC=C(C)C (stereo not drawn) [(6E)-3,7,11-trimethyldodeca-1,6,10-trien-3-ol] | > 16 µM |  | 
6 | C=CC(=C)CCC=C(C)C [7-methyl-3-methylideneocta-1,6-diene] | > 16 µM |  | 
7 | CC/C=C\CCOC(=O)C(C)CC (stereo not drawn) [[(Z)-hex-3-enyl] 2-methylbutanoate] | 13.4 ± 0.2 µM | 11.2 ± 0.16 µM | 
8 | CC(C)=Cc1ccccc1 [2-methylprop-1-enylbenzene] | > 16 µM |  | 
9 | C=CCc1ccc(O)c(OC)c1 [2-methoxy-4-prop-2-enylphenol] | > 16 µM |  | 
10 | CCCCOC(=O)c1ccccc1C(=O)OCCCC [Dibutyl benzene-1,2-dicarboxylate] |  | 6.66 ± 0.03 µM | 
11 | CC/C=C\CCOC(=O)CCC [[(Z)-hex-3-enyl] butanoate] | 15.5 ± 0.9 µM | 12.9 ± 0.75 µM | 
12 | C/C(=C\CO)CCCC(C)CCCC(C)CCCC(C)C (stereo not drawn) [(E)-3,7,11,15-tetramethylhexadec-2-en-1-ol] | > 16 µM |  | 
13 | C=C1C2CCC(C2)C1(C)C (stereo not drawn) [2,2-dimethyl-3-methylidenebicyclo [2.2.1]heptane] | > 16 µM |  | 
14 | CC(=O)c1ccc(C)c(C)c1 [1-(3,4-dimethylphenyl)ethanone] | > 16 µM |  | 
15 | CC(C)=CCC/C(C)=C/CC/C(C)=C/CC/C=C(\C)CC/C=C(\C)CCC=C(C)C [(6E,10E,14E,18E)-2,6,10,15,19,23-hexamethyltetracosa-2,6,10,14,18,22-hexaene] | > 16 µM |  | 
16 | CC(C)=CCC/C(C)=C/C(=O)O [(2E)-3,7-dimethylocta-2,6-dienoic acid] | > 16 µM |  | 
17 | CC(C)C=O [2-methylpropanal] | > 16 µM |  | 
18 | C=CC(C)=CCC=C(C)C [3,7-dimethylocta-1,3,6-triene] | 11.13 ± 0.06 µM | 9.25 ± 0.05 µM | 
19 | CCCCC(=O)OCC [Ethyl pentanoate] | 14.1 ± 0.31 µM | 11.7 ± 0.26 µM | 
20 | CC1=CCC(C(C)C)C=C1 (stereo not drawn) [2-methyl-5-propan-2-ylcyclohexa-1,3-diene] | 11.69 ± 0.07 µM | 9.71 ± 0.06 µM | 
21 | OCc1ccccc1 [Phenylmethanol] | 11.3 ± 0.27 µM | 9.4 ± 0.23 µM | 
22 | CCC/C=C/COC(C)=O [[(E)-hex-2-en-1-yl] acetate] | > 16 µM |  | 

Row | SMILES | IC50 (SvelOBP1 [1]; mean ± SEM) | Ki (SvelOBP1 [1]; [3]) | other results
23 | CC1=CCC2C(C1)C2(C)C (stereo not drawn) [3,7,7-trimethylbicyclo [4.1.0]hept-3-ene] | 14.56 ± 0.07 µM | 12.1 ± 0.06 µM | 
24 | CCc1ccc(C(C)=O)cc1 [1-(4-ethylphenyl)ethanone] | 13.1 ± 0.16 µM | 10.9 ± 0.13 µM | Ki (SvelOBP1 [1]; [4]): 10 to 16 µM
25 | CC(C)=CCC/C(C)=C/CC/C(C)=C/CO [(2E,6E)-3,7,11-trimethyldodeca-2,6,10-trien-1-ol] | 14.4 ± 0.17 µM | 11.9 ± 0.14 µM | 
26 | C/C=C(\C)C(=O)OCC [Ethyl (E)-2-methylbut-2-enoate] | > 16 µM |  | 
27 | CCCCCCCCCCCC [Dodecane] | > 16 µM |  | 
28 | COC(=O)c1ccccc1O [Methyl 2-hydroxybenzoate] | > 16 µM |  | 
29 | CC(C)COC(=O)CCCCC(=O)OCC(C)C [Bis(2-methylpropyl) hexanedioate] | > 16 µM |  | 
30 | CCOC(=O)C(C)CC (stereo not drawn) [Ethyl 2-methylbutyrate] | 11.28 ± 0.1 µM | 9.37 ± 0.08 µM | 
31 | CC12CCC(CC1)C(C)(C)O2 [1,3,3-trimethyl-2-oxabicyclo [2.2.2]octane] | 13.81 ± 0.13 µM | 11.48 ± 0.11 µM | 
32 | O=C1CCCC1C1CCCC1 (stereo not drawn) [2-cyclopentylcyclopentan-1-one] | > 16 µM |  | 
33 | CCC/C=C/CO [(E)-hex-2-en-1-ol] | 15.44 ± 0.14 µM | 12.83 ± 0.12 µM | 
34 | CC/C=C\CCO [(Z)-hex-3-en-1-ol] |  | 7.98 ± 0.08 µM | Ki (SvelOBP1 [1]; [4]): 5 to 10 µM; Ki (SvelOBP15): > 16 µM
35 | C=CC(C)(O)CCC=C(C)C (stereo not drawn) [3,7-dimethylocta-1,6-dien-3-ol] | 13.6 ± 0.16 µM | 11.3 ± 0.13 µM | 
36 | CCCCCCCCCCCCCCCC(=O)O [Hexadecanoic acid] | 14.1 ± 0.33 µM | 11.7 ± 0.27 µM | Ki (SvelOBP1 [1]; [4]): 10 to 16 µM
37 | CCCCOC(C)=O [Butyl acetate] | 13.2 ± 0.47 µM | 10.9 ± 0.39 µM | 
38 | CCOC(=O)CC(C)C [Ethyl 3-methylbutanoate] | > 16 µM |  | 
39 | CC/C=C\CCOC(=O)CC(C)C [[(Z)-hex-3-enyl] 3-methylbutanoate] | 14.4 ± 0.16 µM | 11.9 ± 0.13 µM | 
40 | C=C(C)C1CC=C(C)CC1 (stereo not drawn) [1-methyl-4-prop-1-en-2-ylcyclohexene] | 13.11 ± 0.02 µM | 10.9 ± 0.01 µM | 
41 | C=CC(O)CCCCC (stereo not drawn) [Oct-1-en-3-ol] | 15.18 ± 0.13 µM | 12.61 ± 0.11 µM | 
42 | C=C/C(C)=C/C/C=C(\C)CCC=C(C)C [(3E,6E)-3,7,11-trimethyldodeca-1,3,6,10-tetraene] |  | 8.73 ± 0.09 µM | 
43 | CC1=CC[C@H]2C[C@@H]1C2(C)C [(1S,5S)-2,6,6-trimethylbicyclo [3.1.1]hept-2-ene] | > 16 µM |  | 
44 | c1ccc(Nc2cccc3ccccc23)cc1 [1-NPN, 1-N-phenyl-naphthylamine] |  |  | Kd (SvelOBP1 [2]): 4.92 ± 0.04 µM
